Reference: patent US20250034135A1, “ANTI-APOPTOTIC PROTEIN BCL-2 INHIBITOR, PHARMACEUTICAL COMPOSITION AND USES THEREOF” (HANGZHOU HEALZEN THERAPEUTICS CO., LTD., priority 2021, published 2025)

Biological target: BCL2 (Homo sapiens (Human), UniProt P10415)
Test: Molecular level activity test of anti-apoptotic protein BCL2 (HTRF, binding to Bim peptide)
Settings: HTRF, binding of BCL2 to Bim peptide; read-out: BCL2 nM (inhibitory activity, IC50)
How it was run: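 Disruption of the BCL2/Bim peptide interaction is detected by homogeneous time-resolved fluorescence, using anti-His and streptavidin-XL665 reagents against His-tagged protein and biotin-tagged peptide. Compound exposure lasts 1 h before reagent addition; plates then sit 4 h at room temperature.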

Chain of BCL2 (P10415 whole entry): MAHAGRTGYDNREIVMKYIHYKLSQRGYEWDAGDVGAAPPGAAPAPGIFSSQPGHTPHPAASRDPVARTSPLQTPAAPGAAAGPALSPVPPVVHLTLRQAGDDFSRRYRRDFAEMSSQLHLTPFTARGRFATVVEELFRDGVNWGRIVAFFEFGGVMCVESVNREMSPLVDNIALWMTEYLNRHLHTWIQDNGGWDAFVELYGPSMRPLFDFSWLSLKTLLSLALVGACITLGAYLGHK

SMILES	IC50
CC(C)c1ccccc1[C@@H]1CCCN1C1CC2(CCN(c3cc(Oc4cnc5[nH]ccc5c4)c(C(=O)NS(=O)(=O)c4cc([N+](=O)[O-])c(NCC5(F)CCN(CC(C)(C)C)CC5)c5[nH]cnc45)cc3F)CC2)C1 [compound 026]	< 10 nM
CC(C)c1ccccc1[C@@H]1CCCN1C1CC2(CCN(c3ccc(C(=O)NS(=O)(=O)c4cc([N+](=O)[O-])c(NCC5CCOCC5)c5c4OCO5)c(Oc4cnc5[nH]ccc5c4)c3)CC2)C1 [compound 160, (S)-2-((1H-pyrrolo[2,3-b]pyrid-5-yl)oxy)-4-(2-(2-(2-isopropylphenyl)pyrrolidin-1-yl)-7-azaspiro[3.5]non-7-yl)-N-((6-nitro-7-(((tetrahydro-2H-pyran-4-yl)methyl)amino)benzo[d][1,3]dioxocyclopent-4-yl)sulfonyl)benzamide]	< 10 nM
CC(C)c1ccccc1[C@@H]1CN(Cc2ccc(F)c(F)c2)CCN1C1CC2(CCN(c3ccc(C(=O)NS(=O)(=O)c4cc([N+](=O)[O-])c(NC[C@H]5CC[C@](C)(O)CC5)c5c4OCO5)c(Oc4cnc5[nH]ccc5c4)c3)CC2)C1 [compound 176, 2-((1H-pyrrolo[2,3-b]pyrid-5-yl)oxy)-4-(2-((R)-4-(3,4-difluorobenzyl)-2-(2-isopropylphenyl)piperazin-1-yl)-7-azaspiro[3.5]non-7-yl)-N-((7-((((1r, 4r)-4-hydroxy-4-methylcyclohexyl)methyl)amino)-6-nitrobenzo[d][1,3]dioxocyclopent-4-yl)sulfonyl)benzamide]	< 10 nM
COc1ccc(CN2CCN(C3CC4(CCN(c5cc(Oc6cnc7[nH]ccc7c6)c(C(=O)NS(=O)(=O)c6cc([N+](=O)[O-])c(NC[C@H]7CC[C@](C)(O)CC7)c7ocnc67)cc5F)CC4)C3)[C@H](c3ccccc3C(C)C)C2)cc1 [compound 114, 2-((1H-pyrrolo[2,3-b]pyrid-5-yl)oxy)-5-fluoro-N-((7-((((1r, 4r)-4-hydroxy-4-methylcyclohexyl)methyl)amino)-6-nitrobenzo[d]oxazol-4-yl)sulfonyl)-4-(2-((R)-2-(2-isopropylphenyl)-4-(4-methoxybenzyl)piperazin-1-yl)-7-azaspiro[3.5]non-7-yl)benzamide]	< 10 nM
COc1ccc(CN2CCN(C3CC4(CCN(c5ccc(C(=O)NS(=O)(=O)c6cc([N+](=O)[O-])c(NCC7(F)CCOCC7)c7c6OC(C)(C)O7)c(Oc6cnc7[nH]ccc7c6)c5)CC4)C3)[C@H](c3ccccc3C(C)C)C2)cc1 [compound 162, (R)-2-((1H-pyrrolo[2,3-b]pyrid-5-yl)oxy)-N-((7-(((4-fluorotetrahydro-2H-pyran-4-yl)methyl)amino)-2,2-dimethyl-6-nitrobenzo[d][1,3]dioxocyclopent-4-yl)sulfonyl)-4-(2-(2-(2-isopropylphenyl)-4-(4-methoxybenzyl)piperazin-1-yl)-7-azaspiro[3.5]non-7-yl)benzamide]	< 10 nM
CC(C)c1ccccc1[C@@H]1CN(Cc2c(F)cccc2F)CCN1C1CC2(CCN(c3ccc(C(=O)NS(=O)(=O)c4cc([N+](=O)[O-])c(NCC5(F)CCOCC5)c5c4OCO5)c(Oc4cnc5[nH]ccc5c4)c3)CC2)C1 [compound 170, (R)-2-((1H-pyrrolo[2,3-b]pyrid-5-yl)oxy)-4-(2-(4-(2,6-difluorobenzyl)-2-(2-isopropylphenyl)piperazin-1-yl)-7-azaspiro[3.5]non-7-yl)-N-((7-(((4-fluorotetrahydro-2H-pyran-4-yl)methyl)amino)-6-nitrobenzo[d][1,3]dioxocyclopent-4-yl)sulfonyl)benzamide]	< 10 nM
CC(C)c1ccccc1[C@@H]1CCCN1C1CC2(CCN(c3cc(Oc4cnc5[nH]ccc5c4)c(C(=O)NS(=O)(=O)c4cc([N+](=O)[O-])c(NC[C@H]5CC[C@](C)(O)CC5)c5scnc45)cc3F)CC2)C1 [compound 098, 2-((1H-pyrrolo[2,3-b]pyrid-5-yl)oxy)-5-fluoro-N-((7-((((1r, 4r)-4-hydroxy-4-methylcyclohexyl)methyl)amino)-6-nitrobenzo[d]thiazol-4-yl)sulfonyl)-4-(2-((S)-2-(2-isopropylphenyl)pyrrolidin-1-yl)-7-azaspiro[3.5]non-7-yl)benzamide]	< 10 nM

Second part, the compound after the results:

IC50	SMILES
< 10 nM	CC(C)c1ccccc1[C@@H]1CCCN1C1CC2(CCN(c3cc(Oc4cnc5[nH]ccc5c4)c(C(=O)NS(=O)(=O)c4cc([N+](=O)[O-])c(NCC5(F)CCOCC5)c5occc45)cc3F)CC2)C1 [compound 102, (S)-2-((1H-pyrrolo[2,3-b]pyrid-5-yl)oxy)-5-fluoro-N-((7-(((4-fluorotetrahydro-2H-pyran-4-yl)methyl)amino)-6-nitrobenzofuran-4-yl)sulfonyl)-4-(2-(2-(2-isopropylphenyl)pyrrolidin-1-yl)-7-azaspiro[3.5]non-7-yl)benzamide]
< 10 nM	CC(C)c1ccccc1[C@@H]1CCCN1C1CC2(CCN(c3cc(Oc4cnc5[nH]ccc5c4)c(C(=O)NS(=O)(=O)c4cc([N+](=O)[O-])c(NCC5CCC(O)CC5)c5[nH]cnc45)cc3F)CC2)C1 (some centres unmarked) [compound 016]
< 10 nM	COc1ccc(CN2CCN(C3CC4(CCN(c5cc(Oc6cnc7[nH]ccc7c6)c(C(=O)NS(=O)(=O)c6cc([N+](=O)[O-])c(NC[C@H]7COCCO7)c7scnc67)cc5F)CC4)C3)[C@H](c3ccccc3C(C)C)C2)cc1 [compound 125]
< 10 nM	COc1cc(CN2CCN(C3CC4(CCN(c5cc(Oc6cnc7[nH]ccc7c6)c(C(=O)NS(=O)(=O)c6ccc(NC[C@H]7CC[C@](C)(O)CC7)c([N+](=O)[O-])c6)cc5F)CC4)C3)[C@H](c3ccccc3C(C)C)C2)ccc1C1CC1 [compound 220, 2-((1H-pyrrolo[2,3-b]pyrid-5-yl)oxy)-4-(2-((R)-4-(4-cyclopropyl-3-methoxybenzyl)-2-(2-isopropylphenyl)piperazin-1-yl)-7-azaspiro[3.5]non-7-yl)-5-fluoro-N-((4-((((1r, 4r)-4-hydroxy-4-methylcyclohexyl)methyl)amino)-3-nitrophenyl)sulfonyl)benzamide]
< 10 nM	CC(C)c1ccccc1[C@@H]1CCCN1C1CC2(CCN(c3ccc(C(=O)NS(=O)(=O)c4cc([N+](=O)[O-])c(NCC5(F)CCN(C(C)C)CC5)c5[nH]ccc45)c(Oc4cnc5[nH]ccc5c4)c3)CC2)C1 [compound 010, (S)-2-((1H-pyrrolo[2,3-b]pyrid-5-yl)oxy)-N-((7-(((4-fluoro-1-isopropylpiperid-4-yl)methyl)amino)-6-nitro-1H-indol-4-yl)sulfonyl)-4-(2-(2-(2-isopropylphenyl)pyrrolidin-1-yl)-7-azaspiro[3.5]non-7-yl)benzamide]
< 10 nM	COc1ccc(CN2CCN(C3CC4(CCN(c5cc(Oc6cnc7[nH]ccc7c6)c(C(=O)NS(=O)(=O)c6cc([N+](=O)[O-])c(NC[C@H]7CC[C@](C)(O)CC7)c7oc(C)cc67)cc5F)CC4)C3)[C@H](c3ccccc3C(C)C)C2)cc1 [compound 117, 2-((1H-pyrrolo[2,3-b]pyrid-5-yl)oxy)-5-fluoro-N-((7-((((1r, 4r)-4-hydroxy-4-methylcyclohexyl)methyl)amino)-2-methyl-6-nitrobenzofuran-4-yl)sulfonyl)-4-(2-((R)-2-(2-isopropylphenyl)-4-(4-methoxybenzyl)piperazin-1-yl)-7-azaspiro[3.5]non-7-yl)benzamide]
< 10 nM	CC(C)c1ccccc1[C@@H]1CN(Cc2ccccn2)CCN1C1CC2(CCN(c3cc(Oc4cnc5[nH]ccc5c4)c(C(=O)NS(=O)(=O)c4ccc(NC[C@H]5CC[C@](C)(O)CC5)c([N+](=O)[O-])c4)cc3F)CC2)C1 [compound 233, 2-((1H-pyrrolo[2,3-b]pyrid-5-yl)oxy)-5-fluoro-N-((4-((((1r, 4r)-4-hydroxy-4-methylcyclohexyl)methyl)amino)-3-nitrophenyl)sulfonyl)-4-(2-((R)-2-(2-isopropylphenyl)-4-(pyrid-2-ylmethyl)piperazin-1-yl)-7-azaspiro[3.5]non-7-yl)benzamide]
< 10 nM	CC(C)c1ccccc1[C@@H]1CCCN1C1CC2(CCN(c3cc(Oc4cnc5[nH]ccc5c4)c(C(=O)NS(=O)(=O)c4cc([N+](=O)[O-])c(NCC5(F)CCN(C6CCOCC6)CC5)c5[nH]cnc45)cc3F)CC2)C1 [compound 024, (S)-2-((1H-pyrrolo[2,3-b]pyrid-5-yl)oxy)-5-fluoro-N-((7-(((4-fluoro-1-(tetrahydro-2H-pyran-4-yl)piperid-4-yl)methyl)amino)-6-nitro-1H-benzo[d]imidazol-4-yl)sulfonyl)-4-(2-(2-(2-isopropylphenyl)pyrrolidin-1-yl)-7-azaspiro[3.5]non-7-yl)benzamide]
< 10 nM	COc1ccc(CN2CCN(C3CC4(CCN(c5cc(Oc6cnc7[nH]ccc7c6)c(C(=O)NS(=O)(=O)c6cc([N+](=O)[O-])c(NC[C@H]7CC[C@](C)(O)CC7)c7c6OCO7)cc5F)CC4)C3)[C@H](c3ccccc3C(C)C)C2)cc1 [compound 113, 2-((1H-pyrrolo[2,3-b]pyrid-5-yl)oxy)-5-fluoro-N-((7-((((1r, 4r)-4-hydroxy-4-methylcyclohexyl)methyl)amino)-6-nitrobenzo[d][1,3]dioxocyclopent-4-yl)sulfonyl)-4-(2-((R)-2-(2-isopropylphenyl)-4-(4-methoxybenzyl)piperazin-1-yl)-7-azaspiro[3.5]non-7-yl)benzamide]
< 10 nM	CC(C)c1ccccc1[C@@H]1CN(Cc2ccc(C3CC3)cc2)CCN1C1CC2(CCN(c3ccc(C(=O)NS(=O)(=O)c4cc([N+](=O)[O-])c(NCC5(F)CCOCC5)c5c4OCO5)c(Oc4cnc5[nH]ccc5c4)c3)CC2)C1 [compound 172, (R)-2-((1H-pyrrolo[2,3-b]pyrid-5-yl)oxy)-4-(2-(4-(4-cyclopropylbenzyl)-2-(2-isopropylphenyl)piperazin-1-yl)-7-azaspiro[3.5]non-7-yl)-N-((7-(((4-fluorotetrahydro-2H-pyran-4-yl)methyl)amino)-6-nitrobenzo[d][1,3]dioxocyclopent-4-yl)sulfonyl)benzamide]
